This note sets out measurements from ChEMBL document CHEMBL1201862, “PubChem BioAssay data set” (2004).

Holding throughout (assay): growth of human tumour cells (NCI), 48 h
In assay [1] the test system is KM-20L2.
Assay [2] deals with HL-60.
Assay [3] deals with UO-31.
In assay [4] the test system is SK-MEL-28.
Assay [5] deals with OVCAR-5.
Assay [6] relates to NCI-H460.
Assay [7] has as its system HCC 2998.
Assay [8] deals with SW-620.
In assay [9] the test system is HOP-92.
Assay [10] deals with COLO 205.
In assay [11] the test system is LXFL 529.
Assay [12] deals with LOX IMVI.
The subject of assay [13] is RPMI-8226.
Assay [14] deals with K562.
Assay [15] concerns TK-10.
The test system of assay [16] is UACC-62.
Assay [17] has as its system OVCAR-4.
In assay [18] the test system is BT-549.
Assay [19] relates to DU-145.
Assay [20] deals with NCI/ADR-RES.

The structures appear in SMILES notation.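 Where inhibition never reached the appropriate level, the endpoint shown equals the highest concentration tested. Otherwise, values were interpolated linearly from a five-concentration, 48-hour dose response in 96-well plates. Here, GI50 denotes the concentration required for 50% inhibition of growth.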 Activity calls are given as the source filed them. Rule as the data show it: active = GI50 up to about 1.1 µM and inactive = higher.

In the case of `COc1cc2cc3c4c(cc(OC)c(OC)c4c2cc1OC)CCN3C(=O)N(C)C`, the GI50 in assay [1] was 58.2 µM (inactive); in assay [2] it was > 100 µM (inactive); in [3], > 100 µM (inactive); in assay [4], 27.9 µM (inactive); in [5], > 100 µM (inactive); in [6], 87.7 µM (inactive). The GI50 in assay [7] was > 100 µM (inactive); in [8] it was > 100 µM (inactive); in assay [9], 91 µM (inactive); in assay [10], > 100 µM (inactive); in assay [11] it was 77.4 µM (inactive); in [12] it was > 100 µM (inactive). Further, the GI50 in assay [13] was 82.6 µM (inactive); in [14] it was > 100 µM (inactive); in [15], > 10 µM (inactive); in assay [16], > 100 µM (inactive); in [17] it was 89.5 µM (inactive).

As to `Cn1c(=O)c(C2c3ccccc3Oc3c2c(=O)n(C)c2ccccc32)c(O)c2ccccc21` (stereo unspecified), the GI50 is 59 µM (inactive) in [1]; 30.1 µM (inactive) in assay [2]; 73.5 µM (inactive) in [3]; 86.9 µM (inactive) in assay [4]; > 100 µM (inactive) in assay [5]; > 100 µM (inactive) in assay [6]. For the same compound, the GI50 was 44.3 µM (inactive) in [7]; 43.9 µM (inactive) in [8]; 42.9 µM (inactive) in assay [9]; 30.6 µM (inactive) in assay [10]; 47.9 µM (inactive) in assay [11]; 37.9 µM (inactive) in assay [12]. The GI50 was 38.5 µM (inactive) in [13]; 51.2 µM (inactive) in assay [14]; 33.3 µM (inactive) in assay [15]; 44.9 µM (inactive) in [16]; 86.7 µM (inactive) in assay [17].

As to `O=C(/C=C/c1ccccc1F)c1ccc(Cl)c(Cl)c1`, the GI50 is 36.3 µM (inactive) in assay [1]; 18.9 µM (inactive) in assay [2]; 40.9 µM (inactive) in assay [3]; > 53.1 µM (inactive) in assay [4]; > 87.1 µM (inactive) in assay [5]; > 71.1 µM (inactive) in assay [6]. For the same compound, the GI50 in assay [7] was 24.7 µM (inactive); in [8], 29.3 µM (inactive); in assay [9], > 100 µM (inactive); in assay [10] it was 75.3 µM (inactive); in [11], 18.3 µM (inactive); in assay [12], 15.4 µM (inactive). Further, the GI50 in assay [13] is 27.7 µM (inactive); in [14] it was 20.5 µM (inactive); in assay [15], > 100 µM (inactive); in assay [16] it was 52.8 µM (inactive); in assay [17], 44.4 µM (inactive).

In the case of `C[C@]12CCCC(=O)C1(O)C[C@H](C(=O)O)CC2` (stereo partly specified), the GI50 in assay [1], in assay [2], in assay [3], in assay [4], in assay [5] and in assay [6] was > 100 µM (inactive) each time. Besides, the GI50 in assay [7], in assay [8], in assay [9], in assay [10], in assay [11] and in assay [12] was > 100 µM (inactive) each time. Further, the GI50 in assay [13], in assay [14], in [15], in assay [16] and in [17] was > 100 µM (inactive) each time.

For the compound `COc1cc(C2c3cc4c(cc3[C@@H](N(C)C)[C@H]3COC(=O)C23)OCO4)cc(OC)c1O` (stereo partly specified), the GI50 in assay [1] was 23.4 µM (inactive); in assay [2], 33.4 µM (inactive); in [3] it was > 100 µM (inactive); in assay [4], 14.5 µM (inactive); in assay [5], > 100 µM (inactive); in assay [6], 31.2 µM (inactive). For the same compound, the GI50 in assay [7] is 53.6 µM (inactive); in assay [8], 38.1 µM (inactive); in [9], 11.2 µM (inactive); in assay [10] it was 39.4 µM (inactive); in assay [11], 35.2 µM (inactive); in assay [12], 33.3 µM (inactive). In addition, the GI50 in [13] was 92.3 µM (inactive); in assay [14], 27.3 µM (inactive); in [15], > 100 µM (inactive); in [16], 33.7 µM (inactive); in [17] it was 42.9 µM (inactive).

On to `CC1Nc2ccccc2NC1C=C(C#N)C#N` (stereo unspecified), for which the GI50 was 16.3 µM (inactive) in assay [1]; 1.85 µM (inactive) in [2]; 15 µM (inactive) in assay [3]; 16.6 µM (inactive) in assay [4]; 18.9 µM (inactive) in [5]; 19.4 µM (inactive) in [6]. For the same compound, the GI50 was 18.4 µM (inactive) in [7]; 12.2 µM (inactive) in [8]; 15.1 µM (inactive) in [9]; 18.7 µM (inactive) in assay [10]; 13 µM (inactive) in [11]; 11.3 µM (inactive) in assay [12]. The GI50 in assay [13] was 4.58 µM (inactive); in [14], 8.32 µM (inactive); in assay [15], 19.6 µM (inactive); in assay [16], 16.1 µM (inactive); in [17], 15.9 µM (inactive).

Consider `O=C(CC(=O)c1ccccc1)C(=O)Nc1ccc(Cl)cc1`, for which the GI50 is > 100 µM (inactive) in [1]; > 100 µM (inactive) in assay [2]; > 100 µM (inactive) in assay [3]; > 100 µM (inactive) in assay [4]; > 100 µM (inactive) in [5]; > 39.5 µM (inactive) in [6]. Moreover, the GI50 in [7] was > 64.3 µM (inactive); in assay [8] it was > 42.8 µM (inactive); in assay [9] it was > 100 µM (inactive); in [10], > 46.2 µM (inactive); in assay [11], > 100 µM (inactive); in assay [12], > 42 µM (inactive). Besides, the GI50 in assay [13] was > 100 µM (inactive); in assay [14], > 85.5 µM (inactive); in [15], > 100 µM (inactive); in assay [16], > 100 µM (inactive); in assay [17], > 100 µM (inactive).

Consider `O=C1C(O)=C(CCCc2ccc(Oc3ccccc3)cc2)C(=O)c2ccccc21`, for which the GI50 in [1] was 31.3 µM (inactive); in assay [2] it was 7.94 µM (inactive); in [3] it was 5.92 µM (inactive); in assay [4], 17.9 µM (inactive); in [5], 41.1 µM (inactive); in [6] it was 10.4 µM (inactive). The GI50 in [7] is 25.7 µM (inactive); in assay [8] it was 8.63 µM (inactive); in [9], 12.9 µM (inactive); in [10], 17.7 µM (inactive); in assay [11] it was 4.98 µM (inactive); in assay [12], 3.57 µM (inactive). The GI50 in assay [13] was 5.52 µM (inactive); in [14], 5.78 µM (inactive); in assay [15], 18.4 µM (inactive); in assay [16] it was 3.94 µM (inactive); in [17] it was 19.4 µM (inactive).

Regarding `O=C1c2ccccc2C(=O)c2c(NCCCNCCO)ccc(NCCCNCCO)c21`, the GI50 in assay [1] is 5.51 µM (inactive); in assay [2], 8.97 µM (inactive); in [3], 13.1 µM (inactive); in assay [4] it was 12 µM (inactive); in assay [5], 8.91 µM (inactive); in assay [6], 3.8 µM (inactive). Moreover, the GI50 in [18] was 14.5 µM (inactive); in assay [7] it was 5.37 µM (inactive); in assay [19], 10.2 µM (inactive); in assay [8] it was 5.13 µM (inactive); in assay [9], 10.7 µM (inactive); in [10], 5.85 µM (inactive). Moreover, the GI50 in [11] was 3.85 µM (inactive); in [12], 3.5 µM (inactive); in assay [13], 10.6 µM (inactive); in assay [14], 2.64 µM (inactive); in assay [15], 16 µM (inactive); in assay [20], 28.5 µM (inactive). Further, the figures for the GI50 in assay [16] and in assay [17] were 9.42 µM (inactive) and 9.82 µM (inactive), respectively.

Regarding `COc1cc(C2c3cc4c(cc3[C@@H](Nc3ccc([N+](=O)[O-])cc3)C3COC(=O)[C@H]23)OCO4)cc(OC)c1O` (stereo partly specified), the GI50 in [1] is 2.12 µM (inactive); in assay [2], 0.263 µM (active); in [3], 1.52 µM (inactive); in assay [4] it was 3.84 µM (inactive); in [5], 2.69 µM (inactive); in assay [6] it was 0.0286 µM (active). In addition, the GI50 in [18] is 2.3 µM (inactive); in [7], 2.99 µM (inactive); in [19], 0.362 µM (active); in [8], 1.5 µM (inactive); in assay [9], 1.78 µM (inactive); in assay [10], 3.79 µM (inactive). For the same compound, the GI50 in [11] is 6.4 µM (inactive); in assay [12] it was 0.459 µM (active); in assay [13], 0.525 µM (active); in assay [14] it was 2.44 µM (inactive); in assay [15], 2.41 µM (inactive); in assay [20] it was 3.39 µM (inactive). The GI50 is 0.971 µM (active) in assay [16] and 12.2 µM (inactive) in assay [17].
